Laboratory results reported in article PMC6278385, “Preclinical Pharmacokinetics of C118P, a Novel Prodrug of Microtubules Inhibitor and Its Metabolite C118 in Mice, Rats, and Dogs” (Molecules, 2018).

Experiments:
[1] = Metabolic stability in liver microsomes; assay type: in vitro ADME, dog
Description: (§1) The in vitro metabolic stability of C118P and C118 were estimated in mice, rat, dog, monkey, and human liver microsomes (Research Institute for Liver Diseases Co. Ltd (Shanghai, China)). The incubation mixture contains C118P or C118, NADP (1.0 mM), G-6-P (10 mM), PDH (2 units/mL), MgCl2 (10 mM), and liver microsomes (mice, rats, dogs, monkeys, or humans, 1.0 mg protein/mL) in phosphate buffer. A total of 200 μL of the mixture was removed and quenched with 600 μL acetonitrile in an ice bath at 0, 15, 30, 60, 120, and 240 min after the addition of NADPH.
(§2) CLint, in vitro (the in vitro intrinsic clearance, Equation (1)) was calculated from the t1/2 of C118 disappearance, where Cprotein is the protein concentration during the incubation, and t1/2 was determined by the slope (k) of the log-linear regression analysis of the concentration versus time profiles; thus, t1/2 = ln2/k. […] The in vivo hepatic clearance (CLH, Equation (3)) was then calculated by using CLint and hepatic blood flow, Q ([…] mL·min^−1·kg^−1 in rats, dogs, monkey, and humans, respectively), in the well-stirred liver model disregarding all binding. The hepatic extraction ratio was calculated as CLH divided by Q. CLint, in vitro = (0.693/t1/2) × (1/Cprotein)(1) CLint = CLint, in vitro × (mg protein/g liver weight) × (gliver weight/kg body weight)(2) CLH = (Q × CLint)/(Q + CLint)(3)

[2] = Tandem two-compartment PK model of C118P and C118; assay type: in vivo; details: dog; for K12 / K21 / V1: two-compartmental model parameter (Table S1); for K10: two-compartmental model, K10 supposed to be transformation rate of C118P into C118, simulated
Source text: (§3) Due to the rapid transformation of C118P into C118, there is no direct way to calculate the rate of transformation, thus a two-compartment model with metabolism involved was developed (Figure S3). The transformation rate from C118P into C118 was simulated by fitting the two-serial data of prodrug C118P and C118 in rats and dogs.
(§4) 3. The pharmacokinetic profile of C118P and C118 was simulated by two compartmental models. To simplify the model, the excretion rate of C118P from central compartment was supposed to be zero. In this model, both C118P and C118 were described by two-compartmental model, with elimination rate of k(0,3) for C118. The connection between C118P and C118 is by the uniflow of transformation rate of k(3,1) since the metabolism of C118P to C118 is irreversible(Figure S3).
(§5) Figure S3. The pharmacokinetic model of C118P and C118 in rat after i.v C118P. ex1: the injection dose of C118P, s1: concentration of C118 in central compartment. s2: concentration of C118 in central compartment, q1 and q3 represent the central compartment of C118P and C118, respectively.
(§6) The q2 and q4 represent the peripheral compartment of C118P and C118, respectively. k(0,3) represents the elimination rate of C118 from central compartment. k(3,1) represents the transformation rate of C118P to C118. k(2,1) and k(4,3) represent the distribution rate of C118P and C118 from central compartment to peripheral compartment. k(1,2) and k(3,4) represent the return rate of C118P and C118 from peripheral compartment to central compartment.
(§7) For prodrug pharmacokinetic prediction, the transformation of prodrug to the active drug should be studied in different system to get the right data. With the help of modeling, the transformation ratio of C118P to C118 was calculated by a tandem two-compartment model (SAAMII, University of Washington). In simulation study, the initial parameters are very important for accurate prediction.
(§8) The initial compartmental model parameters of rat and dog were first evaluated by Winnonlin using two-compartmental model at low dose, with intravenous for C118P and extra vessel for C118 since […]
(§9) (1 picture or pasted object on this page, not shown here)
(§10) C118 was transformed from C118P. The initial parameters used in the simulation were listed in Table S1. Using these parameters, the simulation of PK profiles of rat and dog are well fit to the data from in vivo at higher dose (Figure S4). The simulation of C118P and C118, the transformation rate of C118P to C118 is calculated and transformation ratio (k) is about 18.3671/h and12.588 1/h for rats and dogs, respectively.
(§11) Figure S4. The simulation of PK profile at 20 mg/kg in rat(A) and 6 mg/kg(B) in dog based on initial parameters calculated by Winnonlin. (s1 represent the simulated data for C118 and s2 represent the simulated data for C118P, plasma 1 represent the experimental data for C118 and plasma 2 represent the experimental data for C118P.) […]

[3] = Tandem two-compartment PK model of C118P and C118; assay type: in vivo, rat; details: for K12 / K21 / V1 / K10: rat; for K12 / K21 / V1: two-compartmental model parameter (Table S1); for K10: two-compartmental model, K10 supposed to be transformation rate of C118P into C118, simulated
Source text: as §3, §4, §5, §6, §7, §8, §9, §10, §11

[4] = Metabolic stability in liver microsomes; assay type: in vitro ADME, rat
Description: as §1, §2

[5] = Plasma protein binding by ultrafiltration; assay type: in vitro ADME, Sprague-Dawley rats; details: Sprague-Dawley, rat plasma, read-out: fu (fraction unbound);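 also: fu expressed in percent not as a fraction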
Description: Both C118P and C118 were stable in the plasma with EDTA as anticoagulant. The non-specific binding to the ultrafilter membrane was negligible. The extent of plasma protein binding was reported as a fraction unbound (fu, %) value which was calculated using the formula fu = PF/TC × 100%, where TC is test compound (C118P or C118) concentration in sample before ultrafiltration, and PF is the test compound concentration in the ultrafiltrate (Table 1).
Plasma protein binding of C118P and C118 were determined by ultrafiltration at four concentrations (C118P: 400, 4000, 40,000, and 400,000 ng/mL, C118: 20, 200, 2000, and 20,000 ng/mL) in pooled plasma from Sprague-Dawley rats, beagle dogs, and humans. Stock solutions of C118P and C118 dissolved in methanol were diluted with blank plasma to achieve the test concentrations (the methanol volume is less than 10% of the plasma). The plasma was incubated for 1 h in a water bath at 37 °C. The total concentration of C118P and C118 of spiked plasma (TC) was analyzed by previously described methods. Ultrafiltration was performed with activated high speed centrifugal tubes (Millipore, Burlington, MA, USA). Plasma samples (0.4 mL) were added to the upper layer of the high speed centrifugal tubes, and then centrifuged at 12,000 g for 10 min. The concentration of unbound C118P and C118 in filtrate (PF) was similarly determined by the previously described methods. The percentage of free fraction (fu) of C118P and C118 was calculated as follows: fu = (PF/TC) × 100%.

COc1cc(OC)cc(-c2nc[nH]c2-c2ccc(OC)c(O)c2)c1 [C118]
CLint, in vitro ([1]; dog liver microsomes): 9.9 μL·min^−1·mg^−1 Protein | half-life ([1]; dog liver microsomes, 1.0 mg protein/mL, C118 disappearance): 70.1 min | CLint ([1]; dog, scaled from CLint, in vitro): 18.9 mL/min/kg | Extrapolated CLH ([1]; dog, well-stirred liver model): 12.8 mL/min/kg | K12 [2]: 1.3247 h⁻¹ | K21 [2]: 0.2110 h⁻¹ | V1 [2]: 0.2205 L/kg | K10 [2]: 3.1444 h⁻¹ | K12 [3]: 0.3516 h⁻¹ | K21 [3]: 0.0121 h⁻¹ | V1 [3]: 2.708 L/kg | K10 [3]: 0.9897 h⁻¹ | half-life ([4]; Sprague-Dawley, rat liver microsomes, 1.0 mg protein/mL, C118 disappearance): 10.3 min | CLint, in vitro ([4]; rat liver microsomes): 67.0 μL·min^−1·mg^−1 Protein | CLint ([4]; rat, scaled from CLint, in vitro): 115.3 mL/min/kg | Extrapolated CLH ([4]; rat, well-stirred liver model): 43.6 mL/min/kg | fraction unbound at 1 h, 200 ng/mL ([5]; pooled plasma, C118 200 ng/mL): 0.077 ± 0.008 | fraction unbound at 1 h, 2000 ng/mL ([5]; pooled plasma, C118 2000 ng/mL): 0.065 ± 0.003 | fraction unbound at 1 h, 20000 ng/mL ([5]; pooled plasma, C118 20,000 ng/mL): 0.055 ± 0.001

COc1cc(OC)cc(-c2nc[nH]c2-c2ccc(OC)c(OP(=O)([O-])[O-])c2)c1.[Na+].[Na+] [C118P]
stability in liver microsomes ([1]; dog microsomes (Figure S1)): not stable | K12 [2]: 1.844 h⁻¹ | K21 [2]: 4.727 h⁻¹ | V1 [2]: 0.05097 L/kg | K10 [2]: 12.558 h⁻¹ | K12 [3]: 6.535 h⁻¹ | K21 [3]: 18.281 h⁻¹ | V1 [3]: 0.05441 L/kg | K10 [3]: 18.369 h⁻¹ | transformation ratio (k) of C118P to C118 ([3]; rats, simulated with tandem two-compartment model): ~18.367 h⁻¹ | stability in liver microsomes ([4]; rat liver microsomes (Figure S1)): quite stable | fraction unbound at 1 h, 400 ng/mL ([5]; C118P 400 ng/mL): 0.032 ± 0.001 | fraction unbound at 1 h, 4000 ng/mL ([5]; C118P 4000 ng/mL): 0.029 ± 0.001 | fraction unbound at 1 h, 40000 ng/mL ([5]; C118P 40,000 ng/mL): 0.024 ± 0.001 | fraction unbound at 1 h, 400000 ng/mL ([5]; C118P 400,000 ng/mL): 0.122 ± 0.006
